Read-outs that look alike come from different tables or passages of the source.
Target: T1, BRM (Homo sapiens, UniProt P51531)
T1 construct: In-Cell Western Screen of BRM Degradation in SW1573 Cells; endogenous in cells; host or cells: SW1573
Test: In-cell Western screen of BRM degradation in SW1573 cells (Dmax and DC50)
Assay type: cell-based
How it was run: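 SW1573, overnight cpd exposure (18-20 h), 0.1% DMSO final. PFA fix, 0.5% Triton permeabilization, block; IR secondaries at 800/680 nm. Odyssey read → Dmax, DC50.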

[1] = BRM degradation, SW1573 cells, read-out: DC50
[2] = BRM degradation, SW1573 cells, tested at the top concentration of between 0.3 and 10 μM, read-out: Dmax (%) (% degraded)
[3] = degradation of BRM, read-out: BRM DC50
[4] = target protein degradation, read-out: BRM DC50

T1 sequence (P51531 whole entry): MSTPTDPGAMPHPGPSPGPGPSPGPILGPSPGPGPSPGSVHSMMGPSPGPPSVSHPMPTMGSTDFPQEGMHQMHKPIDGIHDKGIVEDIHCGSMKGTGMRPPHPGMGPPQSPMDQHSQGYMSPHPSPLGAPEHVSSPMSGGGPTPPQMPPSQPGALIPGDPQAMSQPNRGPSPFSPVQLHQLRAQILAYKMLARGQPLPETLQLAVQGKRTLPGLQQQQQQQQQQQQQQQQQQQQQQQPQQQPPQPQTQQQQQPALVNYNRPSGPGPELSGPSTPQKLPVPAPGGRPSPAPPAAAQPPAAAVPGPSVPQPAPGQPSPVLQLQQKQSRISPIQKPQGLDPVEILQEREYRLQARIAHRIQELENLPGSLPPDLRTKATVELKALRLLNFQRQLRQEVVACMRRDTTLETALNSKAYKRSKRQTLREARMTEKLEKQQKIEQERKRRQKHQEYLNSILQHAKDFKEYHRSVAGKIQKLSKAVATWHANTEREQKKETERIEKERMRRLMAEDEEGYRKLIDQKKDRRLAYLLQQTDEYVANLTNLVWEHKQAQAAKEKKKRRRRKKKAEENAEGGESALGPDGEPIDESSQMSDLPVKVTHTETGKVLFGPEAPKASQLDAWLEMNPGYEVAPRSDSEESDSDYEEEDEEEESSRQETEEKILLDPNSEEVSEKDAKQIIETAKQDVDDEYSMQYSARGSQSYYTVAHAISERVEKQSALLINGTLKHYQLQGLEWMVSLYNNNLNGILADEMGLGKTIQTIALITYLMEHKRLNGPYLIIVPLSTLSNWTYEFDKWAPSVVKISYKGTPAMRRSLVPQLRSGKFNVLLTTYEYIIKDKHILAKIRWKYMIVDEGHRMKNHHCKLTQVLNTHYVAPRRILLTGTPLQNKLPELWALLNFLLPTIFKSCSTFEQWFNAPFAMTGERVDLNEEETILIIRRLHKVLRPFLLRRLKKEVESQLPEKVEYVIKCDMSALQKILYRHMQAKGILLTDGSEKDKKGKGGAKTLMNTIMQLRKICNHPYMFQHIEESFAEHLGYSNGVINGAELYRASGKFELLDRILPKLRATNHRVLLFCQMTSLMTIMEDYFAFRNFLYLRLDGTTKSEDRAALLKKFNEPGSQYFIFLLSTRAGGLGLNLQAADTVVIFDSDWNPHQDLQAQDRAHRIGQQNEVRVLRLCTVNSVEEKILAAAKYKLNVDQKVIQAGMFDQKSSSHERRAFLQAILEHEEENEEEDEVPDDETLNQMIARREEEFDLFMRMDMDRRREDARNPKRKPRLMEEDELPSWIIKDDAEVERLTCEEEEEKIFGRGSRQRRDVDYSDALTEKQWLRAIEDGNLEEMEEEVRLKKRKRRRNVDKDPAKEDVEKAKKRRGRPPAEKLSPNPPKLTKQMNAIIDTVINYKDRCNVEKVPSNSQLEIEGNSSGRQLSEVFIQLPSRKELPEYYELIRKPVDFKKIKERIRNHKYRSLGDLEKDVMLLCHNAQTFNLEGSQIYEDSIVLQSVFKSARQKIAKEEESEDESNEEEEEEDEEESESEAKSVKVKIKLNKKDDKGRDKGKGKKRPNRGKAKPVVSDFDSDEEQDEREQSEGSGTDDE

Cc1ncsc1-c1ccc([C@H](C)NC(=O)[C@@H]2C[C@@H](O)CN2C(=O)[C@@H](c2cc(CCCN3CCC(O[C@H]4C[C@H](Oc5cc(N6C7CCC6CN(c6cc(-c8ccccc8O)nnc6N)C7)ccn5)C4)CC3)no2)C(C)C)cc1 [compound 191, (2S,4R)-1-((2R)-2-(3-(3-(4-((1r,3R)-3-((4-(3-(3-amino-6-(2-hydroxyphenyl)pyridazin-4-yl)-3,8-diazabicyclo[3.2.1]octan-8-yl)pyridin-2-yl)oxy)cyclobutoxy)piperidin-1-yl)propyl)isoxazol-5-yl)-3-methylbutanoyl)-4-hydroxy-N-((S)-1-(4-(4-methylthiazol-5-yl)phenyl)ethyl)pyrrolidine-2-carboxamide]
DC50 [1]: < 0.0025 µM | Dmax [2]: > 75%

Cc1ncsc1-c1ccc([C@H](C)NC(=O)[C@@H]2C[C@@H](O)CN2C(=O)[C@@H](c2cc(OCCOc3ccc(C(C)n4cc(-c5cc(-c6ccccc6O)nnc5N)cn4)cc3)no2)C(C)C)cc1 (stereo partly drawn) [compound 81, (2S,4R)-1-((2R)-2-(3-(2-(4-(1-(4-(3-amino-6-(2-hydroxyphenyl)pyridazin-4-yl)-1H-pyrazol-1-yl)ethyl)phenoxy)ethoxy)isoxazol-5-yl)-3-methylbutanoyl)-4-hydroxy-N-((S)-1-(4-(4-methylthiazol-5-yl)phenyl)ethyl)pyrrolidine-2-carboxamide]
DC50 [1]: < 0.0025 µM | Dmax (BRM degradation, SW1573 cells, when tested at the top concentration of between 0.3 and 10 μM, read-out: Dmax (%) (% degraded)): > 75%

Cc1ncsc1-c1ccc([C@H](C)NC(=O)[C@@H]2C[C@@H](O)CN2C(=O)[C@@H](c2cc(OCCN3CCC(CCOc4cc(N5C6CCC5CN(c5cc(-c7ccccc7O)nnc5N)C6)ccn4)CC3)no2)C(C)C)cc1 [compound 554, (2S,4R)-1-((2R)-2-(3-(2-(4-(2-((4-(3-(3-amino-6-(2-hydroxyphenyl)pyridazin-4-yl)-3,8-diazabicyclo[3.2.1]octan-8-yl)pyridin-2-yl)oxy)ethyl)piperidin-1-yl)ethoxy)isoxazol-5-yl)-3-methylbutanoyl)-4-hydroxy-N-((S)-1-(4-(4-methylthiazol-5-yl)phenyl)ethyl)pyrrolidine-2-carboxamide]
Dmax (BRM degradation, SW1573 cells, Table 2D, read-out: **Dmax (%) (% degraded)): > 75% | DC50 (BRM degradation, SW1573 cells, Table 2D, read-out: *DC50): < 0.0025 µM

Cc1cc([C@@H](C(=O)N2C[C@H](O)C[C@H]2C(=O)N[C@@H](C)c2ccc(-c3scnc3C)cc2)[C@H](C)COCCCCN2C3CCC2CN(c2cc(-c4ccccc4O)nnc2N)C3)on1 [compound 424, (2S,4R)-1-((2S,3S)-4-(4-(3-(3-amino-6-(2-hydroxyphenyl)pyridazin-4-yl)-3,8-diazabicyclo[3.2.1]octan-8-yl)butoxy)-3-methyl-2-(3-methylisoxazol-5-yl)butanoyl)-4-hydroxy-N-((S)-1-(4-(4-methylthiazol-5-yl)phenyl)ethyl)pyrrolidine-2-carboxamide]
DC50 [3]: > 0.03 µM

Cc1ncsc1-c1ccc([C@H](C)NC(=O)[C@@H]2C[C@@H](O)CN2C(=O)[C@H](c2cc(N3CCC4(CCN(CC5CCN(C[C@H]6C[C@H](Oc7cc(N8C9CCC8CN(c8cc(-c%10ccccc%10O)nnc8N)C9)ccn7)C6)CC5)CC4)CC3)no2)C(C)C)cc1 [compound 688, (2S,4R)-1-((2S)-2-(3-(9-((1-(((1r,3r)-3-((4-(3-(3-amino-6-(2-hydroxyphenyl)pyridazin-4-yl)-3,8-diazabicyclo[3.2.1]octan-8-yl)pyridin-2-yl)oxy)cyclobutyl)methyl)piperidin-4-yl)methyl)-3,9-diazaspiro[5.5]undecan-3-yl)isoxazol-5-yl)-3-methylbutanoyl)-4-hydroxy-N-((S)-1-(4-(4-methylthiazol-5-yl)phenyl)ethyl)pyrrolidine-2-carboxamide]
DC50 [1]: > 0.03 µM

Cc1ncsc1-c1cnc([C@@H](C)NC(=O)[C@@H]2C[C@@H](O)CN2C(=O)[C@H](c2cc(OCCN3CCC(O[C@H]4C[C@H](Oc5cc(N6C7CCC6CN(c6cc(-c8ccccc8O)nnc6N)C7)ccn5)C4)CC3)no2)C(C)C)cn1 [compound 440, (2S,4R)-1-((2S)-2-(3-(2-(4-((1r,3S)-3-((4-(3-(3-amino-6-(2-hydroxyphenyl)pyridazin-4-yl)-3,8-diazabicyclo[3.2.1]octan-8-yl)pyridin-2-yl)oxy)cyclobutoxy)piperidin-1-yl)ethoxy)isoxazol-5-yl)-3-methylbutanoyl)-4-hydroxy-N-((R)-1-(5-(4-methylthiazol-5-yl)pyrazin-2-yl)ethyl)pyrrolidine-2-carboxamide]
DC50 [3]: > 0.03 µM

Cc1ncsc1-c1ccc([C@H](C)NC(=O)[C@@H]2C[C@@H](O)CN2C(=O)[C@@H](c2onc(OCCN3CCC(O[C@H]4C[C@H](Oc5cc(N6C7CCC6CN(c6cc(-c8ccccc8O)nnc6N)C7)ccn5)C4)CC3)c2F)C(C)C)cc1 [compound 209, (2S,4R)-1-((2R)-2-(3-(2-(4-((1r,3R)-3-((4-(3-(3-amino-6-(2-hydroxyphenyl)pyridazin-4-yl)-3,8-diazabicyclo[3.2.1]octan-8-yl)pyridin-2-yl)oxy)cyclobutoxy)piperidin-1-yl)ethoxy)-4-fluoroisoxazol-5-yl)-3-methylbutanoyl)-4-hydroxy-N-((S)-1-(4-(4-methylthiazol-5-yl)phenyl)ethyl)pyrrolidine-2-carboxamide]
DC50 [1]: < 0.0025 µM | Dmax [2]: > 75%

Cc1ncsc1-c1ccc([C@H](C)NC(=O)[C@@H]2C[C@@H](O)CN2C(=O)[C@H](c2cc(N3CCC(CC4CCN(C[C@H]5C[C@H](Oc6cc(N7C8CCC7CN(c7cc(-c9ccccc9O)nnc7N)C8)ccn6)C5)CC4)CC3)no2)C(C)C)cc1 [compound 472, (2S,4R)-1-((2S)-2-(3-(4-((1-(((1r,3r)-3-((4-(3-(3-amino-6-(2-hydroxyphenyl)pyridazin-4-yl)-3,8-diazabicyclo[3.2.1]octan-8-yl)pyridin-2-yl)oxy)cyclobutyl)methyl)piperidin-4-yl)methyl)piperidin-1-yl)isoxazol-5-yl)-3-methylbutanoyl)-4-hydroxy-N-((S)-1-(4-(4-methylthiazol-5-yl)phenyl)ethyl)pyrrolidine-2-carboxamide]
DC50 [4]: > 0.03 µM

Cc1ncsc1-c1ccc([C@H](C)NC(=O)[C@@H]2C[C@@H](O)CN2C(=O)[C@H](c2cc(OCCOCCOc3cc(N4C5CCC4CN(c4cc(-c6ccccc6O)nnc4N)C5)ccn3)no2)C(C)C)cc1 [compound 356, (2S,4R)-1-((2S)-2-(3-(2-(2-((4-(3-(3-amino-6-(2-hydroxyphenyl)pyridazin-4-yl)-3,8-diazabicyclo[3.2.1]octan-8-yl)pyridin-2-yl)oxy)ethoxy)ethoxy)isoxazol-5-yl)-3-methylbutanoyl)-4-hydroxy-N-((S)-1-(4-(4-methylthiazol-5-yl)phenyl)ethyl)pyrrolidine-2-carboxamide]
DC50 [4]: > 0.03 µM

Cc1ncsc1-c1ccc([C@H](C)NC(=O)[C@@H]2C[C@@H](O)CN2C(=O)[C@@H](c2cc(N3CCC(OC4CCN(C[C@H]5C[C@H](Oc6cc(N7C8CCC7CN(c7cc(-c9ccccc9O)nnc7N)C8)ccn6)C5)CC4)CC3)no2)C(C)C)cc1 [compound 474, (2S,4R)-1-((2R)-2-(3-(4-((1-(((1r,3r)-3-((4-(3-(3-amino-6-(2-hydroxyphenyl)pyridazin-4-yl)-3,8-diazabicyclo[3.2.1]octan-8-yl)pyridin-2-yl)oxy)cyclobutyl)methyl)piperidin-4-yl)oxy)piperidin-1-yl)isoxazol-5-yl)-3-methylbutanoyl)-4-hydroxy-N-((S)-1-(4-(4-methylthiazol-5-yl)phenyl)ethyl)pyrrolidine-2-carboxamide]
Dmax (SW1573, % degraded, when tested at the top concentration of between 0.3 and 10 μM, read-out: BRM Dmax (%)): > 75% | DC50 [4]: < 0.0025 µM
